In US20210330611A1, “THERAPY FOR NEUROLOGICAL DISEASES/DISORDERS” (priority 2020, published 2021):
Counter-ions that a name gives are not always drawn. Like-named read-outs stand apart in the source and are kept apart here.

Assays:
[1] = tested on: fibrin- and LPS-induced microglia activation; assay: cells; type: cell-based, rat; conditions: for inhibition at 10 µM: Rattus norvegicus
[2] = tested on: LPS-induced microglia activation; assay: Image-based assay of LPS-induced microglia activation (HTS and dose response); type: cell-based, rat; conditions: Rattus norvegicus, Microglia; for inhibition at 10 µM: read-out: LPS % inhibition
primary rat microglia [3] = conditions: rat
primary rat microglia [4] = conditions: rat; remark: listed apart in the source
in vitro [5] = conditions: rat, Cell Toxicity IC50 (uM) [cFib assay]
in vitro [6] = conditions: rat
[7] = tested on: fibrin-induced microglia activation; assay: Image-based assay of fibrin-induced microglia activation (HTS and dose response); type: cell-based, rat; conditions: Rattus norvegicus, Microglia; for inhibition at 10 µM: read-out: Fibrin % inhibition
[8] = Microglia, read-out: Cherry-picked Hit (Suppl. Table 7)
[9] = read-out: LPS IC50 (uM) (Suppl. Table 7)
[10] = read-out: Fibrin IC50 (uM) (Suppl. Table 7)
[11] = HTS of 1907 compounds, quadrant by fibrin and LPS inhibition
[12] = Microglia, HTS hit classification, read-out: Hit
[13] = hit classification in microglia HTS, read-out: Cherry-picked Hit (Suppl. Table 7)
[14] = quadrant by fibrin and LPS inhibition in HTS of 1907 compounds
[15] = 48 h, Table 1, dose response 0.001-20 μM, triplicates, primary rat microglia, 48 h, read-out: LPS IC50
[16] = 48 h, primary microglia HTS, LPS stimulation, increased cell size (>800 μm^2) as marker of activation
[17] = LPS-induced microglia activation, dose response, read-out: LPS IC50 (uM) (Suppl. Table 7)
[18] = dose response, LPS-induced microglia activation, read-out: LPS IC50
[19] = 48 h, Table 1, dose response 0.001-20 μM, triplicates, primary rat microglia, 48 h, read-out: Fibrin IC50
[20] = dose response, fibrin-induced microglia activation, read-out: Fibrin IC50
[21] = fibrin-induced microglia activation, dose response, read-out: Fibrin IC50 (uM) (Suppl. Table 7)
[22] = primary microglia HTS, fibrin stimulation, increased cell size (>800 μm^2) as marker of activation
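Wherever Fibrin % cell toxicity is given: share of dead cells sized under 150 µm2 at 10 µM in fibrin-stimulated microglia HTS.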

Row | SMILES | Quadrant (FIG. 5b) [1] | inhibition at 10 µM [1, 8] | inhibition at 10 µM ([1]; Microglia, read-out: Hit) | inhibition at 10 µM ([2]; 48 h) | IC50 ([2]; 48 h, read-out: LPS IC50) | IC50 ([2]; read-out: LPS IC50 (uM)) | IC50 [2, 9] | Fibrin % cell toxicity (primary rat microglia [3]) | LPS % cell toxicity (primary rat microglia [4]) | IC50 (in vitro [5]) | IC50 (in vitro [6]) | IC50 ([7]; 48 h, read-out: Fibrin IC50) | inhibition at 10 µM [7] | IC50 ([7]; read-out: Fibrin IC50 (uM)) | IC50 [7, 10] | Quadrant (FIG. 5b) [1, 11] | inhibition at 10 µM [1, 12] | inhibition at 10 µM [1, 13] | Quadrant (FIG. 5b) ([1]; Table 1, screen at 10 μM) | Quadrant (FIG. 5b) [1, 14] | further results
1 | COc1ccc(O)cc1 [Mequinol, reference compound] | Q2 | > 50% | > 50% | 76% | > 20 µM | > 20 µM | > 20 µM | 2% | 1% | > 20 µM | > 20 µM | > 20 µM | 98% | > 20 µM | > 20 µM | – | – | – | – | – | –
2 | COC(=O)C(c1ccccc1)C1CCCCN1 (stereo not drawn) [Methylphenidate hydrochloride, reference compound] | – | – | – | – | – | – | – | 2% | 1% | – | > 20 µM | – | – | – | – | Q2 | > 50% | > 50% | Q2 | Q2 | IC50 [2, 15]: > 20 µM; inhibition at 10 µM [2, 16]: 75%; IC50 [2, 17]: > 20 µM; IC50 [2, 18]: > 20 µM; IC50 (in vitro [5]; cFib assay): > 20 µM; IC50 [7, 19]: > 20 µM; IC50 [7, 20]: > 20 µM; IC50 [7, 21]: > 20 µM; inhibition at 10 µM [7, 22]: 81%
3 | Clc1ccc(COC(Cn2ccnc2)c2ccc(Cl)cc2Cl)c(Cl)c1 (stereo not drawn) [Miconazole nitrate, reference compound] | Q3 | > 50% | > 50% | 23% | – | – | – | 1% | 0% | > 20 µM | > 20 µM | – | 53% | – | – | – | – | – | – | – | –
4 | COc1ccc(OC)c(C(O)CNC(=O)CN)c1 (stereo not drawn) [Midodrine hydrochloride, reference compound] | Q2 | > 50% | > 50% | 52% | > 20 µM | > 20 µM | > 20 µM | 3% | 1% | > 20 µM | > 20 µM | > 20 µM | 95% | > 20 µM | > 20 µM | – | – | – | – | – | –
5 | CNCCC=C1c2ccccc2CCc2ccccc21 [Nortriptyline hydrochloride, reference compound] | Q2 | > 50% | > 50% | 114% | 3 µM | 3 µM | 3 µM | 2% | 81% | 20 µM | 10 µM | 13 µM | 98% | 13 µM | 13 µM | – | – | – | – | – | –
6 | C1CCC(C(CC2CCCCN2)C2CCCCC2)CC1 (stereo not drawn) [Perhexiline maleate, reference compound] | – | – | – | – | – | – | – | 3% | 69% | – | 11 µM | – | – | – | – | Q2 | > 50% | > 50% | Q2 | Q2 | IC50 [2, 15]: 3 µM; inhibition at 10 µM [2, 16]: 123%; IC50 [2, 17]: 3 µM; IC50 [2, 18]: 3 µM; IC50 (in vitro [5]; cFib assay): 20 µM; IC50 [7, 19]: 8 µM; IC50 [7, 20]: 8 µM; IC50 [7, 21]: 8 µM; inhibition at 10 µM [7, 22]: 99%
7 | O=C1NC(=O)C(c2ccccc2)(c2ccccc2)N1 [Phenytoin sodium, reference compound] | – | – | – | – | – | – | – | 1% | 1% | – | > 20 µM | – | – | – | – | Q2 | > 50% | > 50% | Q2 | Q2 | IC50 [2, 15]: > 20 µM; inhibition at 10 µM [2, 16]: 63%; IC50 [2, 17]: > 20 µM; IC50 [2, 18]: > 20 µM; IC50 (in vitro [5]; cFib assay): > 20 µM; IC50 [7, 19]: > 20 µM; IC50 [7, 20]: > 20 µM; IC50 [7, 21]: > 20 µM; inhibition at 10 µM [7, 22]: 82%
